Experimental data taken from patent US20230338340A1, “Methods of Treating Cystic Fibrosis” (The Trustees of Dartmouth College, priority 2020, published 2023).
pIC50, pKd: −log10 of the molar value. Non-standard residues stand in square brackets, D forms with d. Residues, ends and D or L forms follow the SMILES beside them. Tle = CC(C)(C)[C@H](N)C(=O)O

Target: T1, CAL PDZ (Homo sapiens, UniProt Q9HD26)
T1 construct: Recombinant CAL PDZ was expressed and purified in E. coli as previously described; made in house; host or cells: E. coli
Assay: CALP fluorescence polarization (FP) competition assay, HTS format with dose-response validation
Assay type: binding
Set-up: Inhibitory activity CALP at 100 μM: unit not given here
Settings: for pIC50: read-out: Inhibitory activity CALP IC50
Procedure: CALP and/or Dab2 inhibition assays were performed in biochemical “mix-and-measure” format in order to evaluate the effects on activation and inhibition of CALP and/or Dab2 by the compounds of the disclosure. Brief assay procedure is provided below. Unless otherwise specified, all of the compounds were obtained from commercial sources.
CALP inhibitors were identified by fluorescence polarization (FP) competition assays in high-throughput screening (HTS) format. Recombinant CAL PDZ was expressed and purified in E. coli as previously described (Amacher et al., Acta Cyst. (2011) F67, 600-603), and dialyzed into FP storage buffer (25 mM Tris pH 8.5, 150 mM NaCl, 0.1 mM TCEP, and 0.02% sodium azide). A fluorescent reporter peptide, NPG32, was purchased commercially with the following sequence: F*-[…] (F* denotes a N-terminal fluorescein group coupled via an aminohexanoic acid linker). Initial single-dose HTS was performed with libraries comprising ˜52,000 compounds (FAST Lab—Novartis Institutes for BioMedical Research). First, 25 nL of 5 mM small-molecule was transferred to 1536-well Grenier plates. 3 μL of 3.708 μM CALP in FP buffer (FP storage buffer supplemented with […]) was added, and plates were incubated for 10 min. Next, 3 μL of 60 nM NPG32 (in FP buffer) was added. Final reaction volumes were 6 μL and contained 1.854 μM CALP, 30 nM NPG32, and 20.83 μM small-molecule. […] Plates were incubated for 30 minutes at room temperature and anisotropy was measured (480 nm excitation wavelength and 535 nm emission wavelength). […] Compounds were validated in triplicate using 8-point dilution series in half-log increments with two orthogonal assays: FRET and TMR-based FP assay. For the FRET assay, a cerulean-CALP fusion protein (Cer-CALP) was expressed and purified as previously described (Zhao et al., 2018). A fluorescent reporter peptide, PRC34, was purchased commercially with the following sequence: TMR*-[…] (TMR* denotes a N-terminal tetramethylrhodamine group coupled via an aminohexanoic acid linker). First, 40 nL of compound was transferred to the plates. 5 μL of 16.632 μM Cer-CALP was added, and plates were incubated for 30 min. Next, 5 μL of 16.632 μM PRC34 was added, and plates were incubated for 30 min. Final reaction volumes were 10 μL and contained 8.316 μM CALP, 8.316 μM […], and variable concentrations of small-molecule. Negative controls contained equivalent amounts of DMSO (0.4%), while positive controls contained 100 μM NPG30 (sequence: […]). Plates were incubated for 30 min, and emission at 475 nm and 575 nm was measured following excitation at 430 nm. TMR FP assays were conducted as described for the FITC-based assay with the following exceptions: TMR was used as the reporter peptide, the final CALP concentration was 11.952 μM, and the positive control used was 100 μM NPG30.

Row | Inhibitory activity CALP at 100 μM | pIC50 | pKd (unlabeled peptide used as positive control) | Compound
1 | −74.42 | 5.91 | – | COc1cc(O)c2c(c1)oc(=O)c1c3cc(O)c(O)cc3oc21 [Example 7, 1,8,9-trihydroxy-3-methoxy-6H-benzofuro[3,2-c]chromen-6-one]
2 | −54.29 | 5.33 | – | C/C1=C/CC(O)/C=C\C(C)C(O)C(C)/C=C(\C)C(=O)c2c(O)c(C)cc3c2C(=O)C(Cl)=C(NC(=O)/C=C/C=C/C=C/C(C)C(O)CC1=O)C3=O (stereo not shown) [Example 15, 2-chloro-13,19,23,28-tetrahydroxy-12,16,22,24,26,29-hexamethyl-13,14,19,22,23,24-hexahydro-1H-3,31-methanobenzo[e][1]azacyclononacosine-1,5,15,27,32(4H,12H,18H)-pentaone]
3 | – | – | ≥ 6.00 | CC(C)[C@H](NC(=O)[C@H](CCC(N)=O)NC(=O)[C@H](Cc1c[nH]c2ccccc12)NC(=O)[C@H](CCCNC(=N)N)NC(=O)[C@H](CO)NC(=O)[C@H](CC(N)=O)NC(=O)[C@H](C)N)C(=O)N[C@H](C(=O)N[C@@H](CCCNC(=N)N)C(=O)N[C@H](C(=O)O)C(C)(C)C)[C@@H](C)O [NPG35, reference compound] (H-ANSRWQVTR[Tle]-OH)

Row | Compound | Inhibitory activity CALP at 100 μM | pIC50 | pKd (unlabeled peptide used as positive control)
4 | CC[C@@]1(O)C[C@H](O[C@H]2C[C@H](N(C)C)[C@H](O)[C@H](C)O2)c2c(cc3c(c2O)C(=O)c2c(O)ccc(O)c2C3=O)[C@H]1C(=O)OC [Example 14, methyl (1R,2R,4S)-4-(((2R,4S,5S,6S)-4-(dimethylamino)-5-hydroxy-6-methyltetrahydro-2H-pyran-2-yl)oxy)-2-ethyl-2,5,7,10-tetrahydroxy-6,11-dioxo-1,2,3,4,6,11-hexahydrotetracene-1-carboxylate] | −67.06 | 6.14 | –
